# Measured values taken from patent publication US8410064B2, “Classical cannabinoid metabolites and methods of use thereof” (priority 2009, dated 2013).
# T1: recombinant human UGT1A10 (Homo sapiens, UniProt Q9HAW8)
# T1 sequence (Q9HAW8 26-530): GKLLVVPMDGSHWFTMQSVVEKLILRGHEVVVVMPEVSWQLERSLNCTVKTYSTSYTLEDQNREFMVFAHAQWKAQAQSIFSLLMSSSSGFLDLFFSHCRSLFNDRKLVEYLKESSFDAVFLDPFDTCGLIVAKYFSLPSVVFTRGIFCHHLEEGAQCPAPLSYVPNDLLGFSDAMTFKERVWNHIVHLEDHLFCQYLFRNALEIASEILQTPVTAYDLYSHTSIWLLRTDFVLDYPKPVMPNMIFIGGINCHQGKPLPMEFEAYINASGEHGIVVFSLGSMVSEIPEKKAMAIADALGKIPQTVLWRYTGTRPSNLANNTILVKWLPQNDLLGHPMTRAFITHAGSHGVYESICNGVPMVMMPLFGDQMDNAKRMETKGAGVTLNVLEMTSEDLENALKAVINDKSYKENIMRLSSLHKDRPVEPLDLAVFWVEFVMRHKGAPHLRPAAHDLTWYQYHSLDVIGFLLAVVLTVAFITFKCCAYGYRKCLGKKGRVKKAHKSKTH
# T2: recombinant human UGT1A1 (Homo sapiens, UniProt P22309)
# T2 sequence (P22309 26-533): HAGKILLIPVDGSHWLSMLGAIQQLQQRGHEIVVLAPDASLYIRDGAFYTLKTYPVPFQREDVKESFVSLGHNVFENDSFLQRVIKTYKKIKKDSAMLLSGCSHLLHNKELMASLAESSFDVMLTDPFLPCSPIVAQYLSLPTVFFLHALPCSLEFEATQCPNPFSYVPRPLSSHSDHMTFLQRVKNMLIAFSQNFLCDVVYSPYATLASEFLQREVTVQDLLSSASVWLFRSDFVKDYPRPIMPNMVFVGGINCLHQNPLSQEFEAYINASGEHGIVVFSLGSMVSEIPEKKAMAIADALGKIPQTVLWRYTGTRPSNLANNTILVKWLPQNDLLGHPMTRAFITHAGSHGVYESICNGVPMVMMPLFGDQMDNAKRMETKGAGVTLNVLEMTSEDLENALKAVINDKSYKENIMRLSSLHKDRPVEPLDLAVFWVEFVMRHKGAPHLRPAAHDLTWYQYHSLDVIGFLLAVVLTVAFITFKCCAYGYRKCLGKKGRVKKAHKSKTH
# T3: recombinant human UGT1A3 (Homo sapiens, UniProt P35503)
# T3 sequence (P35503 29-534): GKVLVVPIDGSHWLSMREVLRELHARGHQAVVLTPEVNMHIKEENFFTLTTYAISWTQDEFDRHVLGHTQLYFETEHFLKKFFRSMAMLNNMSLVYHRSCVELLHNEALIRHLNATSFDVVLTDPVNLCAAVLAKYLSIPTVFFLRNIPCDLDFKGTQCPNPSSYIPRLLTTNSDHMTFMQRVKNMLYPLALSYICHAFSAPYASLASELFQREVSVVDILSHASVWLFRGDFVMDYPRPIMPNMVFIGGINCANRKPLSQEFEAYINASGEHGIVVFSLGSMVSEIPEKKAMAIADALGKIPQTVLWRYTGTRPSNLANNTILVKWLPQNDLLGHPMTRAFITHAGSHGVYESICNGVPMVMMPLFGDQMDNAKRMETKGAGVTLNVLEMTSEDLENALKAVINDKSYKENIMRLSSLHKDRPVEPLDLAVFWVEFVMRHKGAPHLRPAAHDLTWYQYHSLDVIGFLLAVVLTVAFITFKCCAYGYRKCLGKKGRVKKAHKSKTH
# T4: recombinant human UGT1A9 (Homo sapiens, UniProt O60656)
# T4 sequence (O60656 26-530): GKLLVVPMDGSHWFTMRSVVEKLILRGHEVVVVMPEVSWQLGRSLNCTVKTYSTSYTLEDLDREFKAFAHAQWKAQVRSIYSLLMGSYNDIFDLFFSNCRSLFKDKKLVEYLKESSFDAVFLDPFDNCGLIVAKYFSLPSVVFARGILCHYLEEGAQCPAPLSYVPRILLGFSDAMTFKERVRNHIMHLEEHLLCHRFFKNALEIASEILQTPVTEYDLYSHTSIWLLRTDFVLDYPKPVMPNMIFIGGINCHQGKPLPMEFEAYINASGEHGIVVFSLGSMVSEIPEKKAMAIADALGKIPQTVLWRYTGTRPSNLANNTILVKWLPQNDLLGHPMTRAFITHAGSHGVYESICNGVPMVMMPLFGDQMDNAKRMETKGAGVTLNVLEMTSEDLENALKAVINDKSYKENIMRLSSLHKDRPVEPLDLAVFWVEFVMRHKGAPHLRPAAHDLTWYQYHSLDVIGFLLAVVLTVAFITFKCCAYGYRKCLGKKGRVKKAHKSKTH
# B1: recombinant human UGT1A10 (Homo sapiens) (protein)
# chain: T1 sequence (Q9HAW8 26-530)
# B2: recombinant human UGT1A9 (Homo sapiens) (protein)
# chain: T4 sequence (O60656 26-530)
# B3: recombinant human UGT1A7 (Homo sapiens) (protein)
# chain: GKLLVVPMDGSHWFTMQSVVEKLILRGHEVVVVMPEVSWQLGRSLNCTVKTYSTSYTLEDQDREFMVFADARWTAPLRSAFSLLTSSSNGIFDLFFSNCRSLFNDRKLVEYLKESCFDAVFLDPFDACGLIVAKYFSLPSVVFARGIFCHYLEEGAQCPAPLSYVPRLLLGFSDAMTFKERVWNHIMHLEEHLFCPYFFKNVLEIASEILQTPVTAYDLYSHTSIWLLRTDFVLEYPKPVMPNMIFIGGINCHQGKPVPMEFEAYINASGEHGIVVFSLGSMVSEIPEKKAMAIADALGKIPQTVLWRYTGTRPSNLANNTILVKWLPQNDLLGHPMTRAFITHAGSHGVYESICNGVPMVMMPLFGDQMDNAKRMETKGAGVTLNVLEMTSEDLENALKAVINDKSYKENIMRLSSLHKDRPVEPLDLAVFWVEFVMRHKGAPHLRPAAHDLTWYQYHSLDVIGFLLAVVLTVAFITFKCCAYGYRKCLGKKGRVKKAHKSKTH
# B4: recombinant human UGT1A8 (Homo sapiens) (protein)
# chain: GKLLVVPMDGSHWFTMQSVVEKLILRGHEVVVVMPEVSWQLGKSLNCTVKTYSTSYTLEDLDREFMDFADAQWKAQVRSLFSLFLSSSNGFFNLFFSHCRSLFNDRKLVEYLKESSFDAVFLDPFDACGLIVAKYFSLPSVVFARGIACHYLEEGAQCPAPLSYVPRILLGFSDAMTFKERVRNHIMHLEEHLFCQYFSKNALEIASEILQTPVTAYDLYSHTSIWLLRTDFVLDYPKPVMPNMIFIGGINCHQGKPLPMEFEAYINASGEHGIVVFSLGSMVSEIPEKKAMAIADALGKIPQTVLWRYTGTRPSNLANNTILVKWLPQNDLLGHPMTRAFITHAGSHGVYESICNGVPMVMMPLFGDQMDNAKRMETKGAGVTLNVLEMTSEDLENALKAVINDKSYKENIMRLSSLHKDRPVEPLDLAVFWVEFVMRHKGAPHLRPAAHDLTWYQYHSLDVIGFLLAVVLTVAFITFKCCAYGYRKCLGKKGRVKKAHKSKTH
# Columns and labels:
# [1] = molecular target: T1, recombinant human UGT1A10; assay: Glucuronidation by recombinant UGT1A10 (activity screen and steady-state kinetics); conditions: for glucuronidation activity (initial screen): 750 μM substrate, 90 min
# [2] = system: human liver microsomes; assay: Glucuronidation by human liver microsomes (activity screen); conditions: human liver microsomes (HLM); 750 μM substrate, UDP-GlcUA 4 mM, 90 min
# [3] = molecular target: T2, recombinant human UGT1A1; assay: Glucuronidation by recombinant UGT1A1 (activity screen and steady-state kinetics); conditions: UDP-GlcUA 4 mM
# [4] = molecular target: T3, recombinant human UGT1A3; assay: Glucuronidation by recombinant UGT1A3 (activity screen and steady-state kinetics); conditions: UDP-GlcUA 4 mM
# [5] = molecular target: T4, recombinant human UGT1A9; assay: Glucuronidation by recombinant UGT1A9 (activity screen and steady-state kinetics); conditions: UDP-GlcUA 4 mM
# [6] = substrate: CCCCCc1cc(O)c2c(c1)OC(C)(C)c1ccc(C)cc1-2; assay: cells, lysate or membranes named; conditions: UDP-GlcUA 4 mM, 37° C., 30 min, TLC, pH 7.4
# [7] = 5 μg membrane protein, 37° C., 30 min, TLC
# [8] = 5 μg membrane protein, 37° C., 30 min, TLC, normalized
# [9] = other: UGT1A10, 5 μg membrane protein
# [10] = other: UGT1A9, 5 μg membrane protein
# [11] = other: UGT1A7, 5 μg membrane protein
# [12] = other: UGT1A8, 5 μg membrane protein
molecule,measurement,setting,value
"CCCCCc1cc(O)c2c(c1)OC(C)(C)c1ccc(C)cc1-2 [CBN, cannabinol]",glucuronidation activity (initial screen),[1]; UDP-GlcUA 4 mM,glucuronidated at high levels
same,effectiveness of conjugation relative to 11-OH-THC,[1]; CBN versus 11-OH-THC,3 fold
"CCCCCc1cc(O)c2c(c1)OC(C)(C)[C@@H]1CCC(C(=O)O)=C[C@@H]21 [COOH-THC, (−)-11-nor-9-carboxy-Δ^9-THC]",glucuronidation activity (initial screen),[2],significant amount of activity
same,Km,[3]; [7],170 ± 37 µM
same,Vmax,[3]; [8],0.22 ± 0.02 nmol/mg protein/min
same,glucuronidation activity (initial screen),"[3]; 750 μM substrate, 90 min",significant amount of activity
same,Km,[4]; [7],68 ± 17 µM
same,Vmax,[4]; [8],0.68 ± 0.06 nmol/mg protein/min
same,glucuronidation activity (initial screen),"[4]; 750 μM substrate, 90 min",highest activity
(±)-11-hydroxy-Δ^9-THC [11-OH-THC],Km,[5]; [7],73 ± 1.9 µM
same,Vmax,[5]; [8],0.14 ± 0.01 nmol/mg protein/min
same,glucuronidation activity (initial screen),"[5]; 750 μM substrate, 90 min",specifically glucuronidated
same,Km,"[1]; 5 μg membrane protein, UDP-GlcUA 4 mM, 37° C., 30 min, TLC",72 ± 19 µM
same,Vmax,"[1]; 5 μg membrane protein, UDP-GlcUA 4 mM, 37° C., 30 min, TLC, normalized",0.33 ± 0.03 nmol/mg protein/min
same,glucuronidation activity (initial screen),[1]; UDP-GlcUA 4 mM,specifically glucuronidated
B1,Km,[6]; [9],59 ± 10 µM
same,Vmax,[6]; [9],0.00091 µmol/min/mg
B2,Km,[6]; [10],3.4 ± 1.3 µM
same,Vmax,[6]; [10],0.0001 µmol/min/mg
B3,Km,[6]; [11],19 ± 3.9 µM
same,Vmax,[6]; [11],0.00024 µmol/min/mg
B4,Km,[6]; [12],44 ± 8.1 µM
same,Vmax,[6]; [12],0.00049 µmol/min/mg
